Laboratory results taken from PMC5926067 (Japanese Journal of Cancer Research : Gann, 1999).

Experiments:
Assay type in all cases: biochemical
stromelysin = stromelysin (Mus musculus, UniProt P28862); experiment: fluorescence-labeled casein degradation assay, partially purified enzyme
gelatinase A (MMP-2) = molecular target: T1, gelatinase A (MMP-2) (Homo sapiens, UniProt P08253); experiment: fluorescence-labeled gelatin degradation assay, partially purified enzyme
T1 sequence (P08253 110-660): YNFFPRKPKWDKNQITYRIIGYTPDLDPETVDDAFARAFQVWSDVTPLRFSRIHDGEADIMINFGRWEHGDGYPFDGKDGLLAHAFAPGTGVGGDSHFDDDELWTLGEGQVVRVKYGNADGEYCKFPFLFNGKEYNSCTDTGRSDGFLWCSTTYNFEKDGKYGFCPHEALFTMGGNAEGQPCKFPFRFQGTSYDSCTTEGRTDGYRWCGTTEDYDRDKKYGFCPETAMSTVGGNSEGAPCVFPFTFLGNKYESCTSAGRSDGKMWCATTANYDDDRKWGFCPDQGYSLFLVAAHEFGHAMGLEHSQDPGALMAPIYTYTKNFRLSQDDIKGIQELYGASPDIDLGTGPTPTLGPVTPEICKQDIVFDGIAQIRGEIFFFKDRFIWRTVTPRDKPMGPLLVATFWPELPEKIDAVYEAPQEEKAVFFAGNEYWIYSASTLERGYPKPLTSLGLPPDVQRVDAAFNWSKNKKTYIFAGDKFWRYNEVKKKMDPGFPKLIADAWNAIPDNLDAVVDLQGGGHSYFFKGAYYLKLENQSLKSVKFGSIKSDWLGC

gelatinase B (MMP-9) = gelatinase B (MMP-9) (Homo sapiens, UniProt P14780); experiment: as above
Sequence of gelatinase B (MMP-9) (P14780 107-707): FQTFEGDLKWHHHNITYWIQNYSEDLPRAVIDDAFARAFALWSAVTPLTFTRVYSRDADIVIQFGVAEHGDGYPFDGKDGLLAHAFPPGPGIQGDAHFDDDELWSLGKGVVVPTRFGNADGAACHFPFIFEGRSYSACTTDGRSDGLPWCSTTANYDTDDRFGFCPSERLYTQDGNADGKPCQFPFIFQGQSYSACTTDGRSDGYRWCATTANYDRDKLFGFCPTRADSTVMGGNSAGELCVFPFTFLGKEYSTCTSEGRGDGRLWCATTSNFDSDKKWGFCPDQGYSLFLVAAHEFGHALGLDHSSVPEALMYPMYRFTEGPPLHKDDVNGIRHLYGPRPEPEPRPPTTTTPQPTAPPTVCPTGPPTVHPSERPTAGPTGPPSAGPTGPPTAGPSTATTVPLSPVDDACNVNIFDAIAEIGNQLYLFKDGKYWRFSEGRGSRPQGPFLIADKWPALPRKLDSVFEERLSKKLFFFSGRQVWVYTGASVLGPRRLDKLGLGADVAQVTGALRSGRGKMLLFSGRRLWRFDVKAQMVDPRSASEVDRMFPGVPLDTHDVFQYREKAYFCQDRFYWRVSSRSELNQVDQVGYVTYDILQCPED

interstitial collagenase = molecular target: T2, interstitial collagenase (Homo sapiens, UniProt P03956); experiment: fluorescence-labeled collagen degradation assay, partially purified enzyme
T2 sequence (P03956 100-469): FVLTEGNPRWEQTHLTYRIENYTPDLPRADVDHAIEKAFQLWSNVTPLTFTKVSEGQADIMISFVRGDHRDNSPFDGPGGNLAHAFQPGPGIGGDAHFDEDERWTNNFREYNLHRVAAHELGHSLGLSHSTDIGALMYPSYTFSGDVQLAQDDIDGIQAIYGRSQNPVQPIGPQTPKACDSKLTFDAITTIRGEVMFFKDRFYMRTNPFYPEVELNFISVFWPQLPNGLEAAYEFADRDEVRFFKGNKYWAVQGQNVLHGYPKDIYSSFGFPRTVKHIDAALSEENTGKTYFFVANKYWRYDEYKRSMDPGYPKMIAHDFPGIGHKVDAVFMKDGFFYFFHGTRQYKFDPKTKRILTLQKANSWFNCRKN

Sequence of stromelysin (P28862 100-477): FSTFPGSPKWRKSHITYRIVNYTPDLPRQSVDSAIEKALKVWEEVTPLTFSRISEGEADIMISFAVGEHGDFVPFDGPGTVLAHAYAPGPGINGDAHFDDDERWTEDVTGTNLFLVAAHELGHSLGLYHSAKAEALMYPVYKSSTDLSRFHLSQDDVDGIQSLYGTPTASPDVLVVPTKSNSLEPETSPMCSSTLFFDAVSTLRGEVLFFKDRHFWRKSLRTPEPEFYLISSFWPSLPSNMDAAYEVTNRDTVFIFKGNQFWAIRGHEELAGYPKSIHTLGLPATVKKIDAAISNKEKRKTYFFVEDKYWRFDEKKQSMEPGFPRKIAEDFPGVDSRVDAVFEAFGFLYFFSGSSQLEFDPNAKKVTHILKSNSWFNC

IC50 (stromelysin): 2000 nM | IC50 (gelatinase A (MMP-2)): 5000 nM | IC50 (gelatinase B (MMP-9)): 500 nM | IC50 (interstitial collagenase): 700 nM
SMILES: CON1C(=O)[C@@H](NC(=O)[C@@H](CC(=O)NO)CC(C)C)Cc2ccccc21 [OPB-3206, 3S-[4-(N-hydroxyamino)-2R-isobutylsuccinyl]amino-1-methoxy-3,4-dihydrocarbostyril]
